The target in series [1] is rat alpha-1 adrenergic receptor. Briefly: alpha-1 adrenergic receptor binding by displacement of 3[H]-prazosin in rat brain membranes. To be noted: 3[H]-prazosin displacement, read-out: α1 IC50. How it is done: Binding to the rat alpha-1 adrenergic receptor in rat brain membranes was determined by displacement of ^3[H]-prazosin (P. Greengrass and R. Bremner; Binding characteristics of 3H-prazosin to rat brain a-adrenergic receptors. Eur. J. Pharmacol. 1979, 55: 323-326). Compounds were incubated at 0.3 or 3 μM final concentration, in duplicate, and the amount of displaced ^3[H]-prazosin determined by liquid scintillation spectroscopy.
Binding IC50 values were determined from displacement curves (four-six concentrations, each concentration in duplicate) fit by a non-linear, least squares, regression analysis using MathIQ (ID Business Solutions Ltd., UK). The binding Ki's were determined from the IC50 according to the method of Cheng and Prusoff (Y. Cheng and W. H. Prusoff; Relationship between the inhibition constant (K1) and the concentration of inhibitor which causes 50 percent inhibition (IC50) of an enzymatic reaction. Biochem. Pharmacol. 1973, 22: 3099-3108).

A short description of series [2]: Plasma half-life / plasma pharmacokinetics (Table G). It is filed as in vivo. As to conditions: rat. How it is done:
(§1) Animals were fasted overnight prior to dose administration and food returned to the animals two hours after dosing. Following IV dosing, blood samples (ca 200 μL) were collected into separate tubes containing anticoagulant (K-EDTA) via the orbital plexus at various times post administration. Plasma samples were prepared immediately after collection by centrifugation for ten minutes using a tabletop centrifuge, and stored at −80° C. Brain tissue was weighed, homogenized on ice in 50 mM phosphate buffer (2 ml per brain) and the homogenate stored at −80° C. Plasma and brain homogenate samples were extracted by the addition of 5 volumes of cold acetonitrile, mixed well by vortexing and centrifuged at 4000 rpm for 15 minutes. The supernatant fractions were analyzed by LC-MS/MS operating in multiple reaction monitoring mode (MRM). The amount of parent compound in each sample was calculated by comparing the response of the analyte in the sample to that of a standard curve.

Series [3] is described as follows: Brain exposure / brain penetration (Table H). In kind it is in vivo, rat. To be noted: for BBB Pene Classification: classes High/Moderate/Low, key not given. The method, then:
as §1, with “Rats (n=3 per dose) were administered compounds at a doses of 1-4 mg/kg in a single bolus i.v. infusion (2 ml/kg body weight) via the tail vein formulated in 2% dimethyl acetamide/98% 2-hydroxy-propyl cyclodextrin (5%). Animals” for “Animals”

Series [4] in a line: Oral absorption (Table I). To be noted: rat, plasma, read-out: p.o. t½ hr (converted). In kind it is in vivo.
The mark [5] stands for this setting: iv, 3 mg/kg, 3 MPK i.v., read-out: PK-i.v. t½ (converted).
[6] abbreviates: iv, 1 mg/kg, 1 MPK i.v., read-out: PK-i.v. t½ (converted).

A value given as a limit tells only on which side of the number the result lay.

The IC50 is the concentration that gives 50% inhibition. As to `CS(=O)(=O)Nc1ccc(OC[C@@H](O)CN2CCN(c3ccc(Cl)cc3)CC2)cc1`, in series [1], the half-inhibitory concentration (IC50) is 350 nM.

As to `O[C@H](COc1ccc2[nH]ncc2c1)CN1CCN(c2ccc(Cl)cc2)CC1`, the half-inhibitory concentration (IC50) in series [1] was approximately 300 nM.

Regarding `O=c1ccc2cc(OC[C@@H](O)CN3CCN(c4ccc(Cl)cc4)CC3)ccc2[nH]1`, the IC50 in series [1] was approximately 350 nM.

Regarding `O=c1[nH]c2ccc(OC[C@@H](O)CN3CCN(c4ccc(Cl)cc4)CC3)cc2[nH]1`, in series [1], the half-maximal inhibitory concentration (IC50) was approximately 350 nM.

With `O=C1Cc2cc(OC[C@@H](O)CN3CCN(c4ccc(Cl)cc4)CC3)ccc2N1`, in series [1], the IC50 is approximately 100 nM.

For `O[C@H](COc1ccc2[nH]c(=S)[nH]c2c1)CN1CCN(c2ccc(Cl)cc2)CC1`, the 50% inhibitory concentration (IC50) in series [1] was approximately 150 nM.

For the compound `O=C1CCc2cc(OC[C@@H](O)CN3CCN(c4ccc(Cl)cc4)CC3)ccc2N1`, the IC50 in series [1] is approximately 100 nM.

Take `CS(=O)(=O)Nc1ccc(OC[C@@H](O)CN2CCN(c3ccc(Cl)c(Cl)c3)CC2)cc1`: the half-life in series [2] (setting [5]) was 2.6 h.

Consider `O=C(COc1ccc2[nH]c(=O)[nH]c2c1)N1CCN(c2ccc(Cl)c(Cl)c2)CC1`, for which the half-life in series [2] (setting [6]) is 1.84 h.

`Oc1ccc(OC[C@@H](O)CN2CCN(c3ccc(Cl)cc3)CC2)cc1` [drawing 743]: the IC50 in series [1] is 720 nM.

Take `O=c1[nH]c2ccc(OC[C@@H](O)CN3CCN(c4ccc(Cl)cc4)CC3)cc2o1` [drawing 744]: in series [1], the IC50 was 620 nM.

Consider `NC(=O)Nc1ccc(OC[C@@H](O)CN2CCN(c3ccc(Cl)cc3)CC2)cc1` [drawing 746], for which, in series [1], the concentration for half-maximal inhibition (IC50) stood at 340 nM.

In the case of `NC(=O)Nc1ccc(OC[C@@H](O)CN2CCN(c3ccc(Cl)cc3)CC2)cc1` [drawing 754], the half-life in series [2] (setting [6]) is 2.7 h.

Turning to `O=c1[nH]c2ccc(OC[C@@H](O)CN3CCN(c4ccc(F)c(F)c4)CC3)cc2[nH]1` [drawing 755], the half-life in series [2] (setting [6]) was 2.4 h.

`CS(=O)(=O)Nc1ccc(OC[C@@H](O)CN2CCN(c3ccc(F)c(F)c3)CC2)cc1` [drawing 757]: the half-life in series [2] (ip, 60 mg/kg, 60 MPK i.p., read-out: PK t½ (hr) i.p.) is more than 2 h.

`Cc1ccc(N2CCN(C[C@H](O)COc3ccc4c(c3)CCC(=O)N4)CC2)cc1` [drawing 758]: the half-life in series [2] (setting [6]) is 0.8 h.

For `Oc1ccc(OC[C@@H](O)CN2CCN(c3ccc(Cl)cc3)CC2)cc1` [drawing 759], the half-life in series [2] (setting [6]) is 0.6 h.

Consider `O=c1[nH]c2ccc(OC[C@@H](O)CN3CCN(c4ccc(Cl)cc4)CC3)cc2o1` [drawing 760], for which, in series [2] (setting [6]), the half-life was 0.6 h.

Turning to `Cc1ccc(N2CCN(C[C@H](O)COc3ccc4[nH]c(=O)oc4c3)CC2)cc1` [drawing 761], in series [2] (setting [6]), the half-life is 0.6 h.

`NC(=O)Nc1ccc(OC[C@@H](O)CN2CCN(c3ccc(Cl)cc3)C2=O)cc1` [drawing 762]: the half-life in series [2] (setting [6]) is 1.14 h.

As for `O=C1N(C[C@H](O)COc2ccc(O)cc2)CCN1c1ccc(Cl)cc1` [drawing 763], the half-life in series [2] (setting [5]) is not above 0.8 h.

With `O=C(COc1ccc2[nH]c(=O)oc2c1)N1CCN(c2ccc(Cl)c(Cl)c2)CC1` [drawing 765], in series [2] (ip, 10 mg/kg, 10 MPK i.p., read-out: PK t½ (hr) i.p.), the half-life is approximately 0.83 h.

In the case of `O=c1[nH]c2ccc(OC[C@@H](O)CSc3nc4cc(Cl)c(Cl)cc4[nH]3)cc2o1` [drawing 766], in series [2] (setting [5]), the half-life is not above 0.8 h.

On to `Oc1ccc(OC[C@@H](O)CSc2nc3cc(Cl)c(Cl)cc3[nH]2)cc1` [drawing 767], for which, in series [2] (setting [5]), the half-life is approximately 0.5 h.

Consider `Oc1ccc(OC[C@@H](O)CN2CCN(c3ccc(Cl)cc3)CC2)cc1` [drawing 768], for which, in series [3], the “BBB Pene Classification” value is on record as “High”.

Consider `Cc1ccc(N2CCN(C[C@H](O)COc3ccc4[nH]c(=O)oc4c3)CC2)cc1` [drawing 769], for which the “BBB Pene Classification” value in series [3] was “Moderate”.

As to `CS(=O)(=O)Nc1ccc(OC[C@@H](O)CN2CCN(c3ccc(F)c(F)c3)CC2)cc1` [drawing 770], in series [3], the “BBB Pene Classification” value is on record as “Moderate”.

With `NC(=O)Nc1ccc(OC[C@@H](O)CN2CCN(c3ccc(Cl)cc3)CC2)cc1` [drawing 771], the “BBB Pene Classification” value in series [3] is “Low”.

`O=C1N(C[C@H](O)COc2ccc(O)cc2)CCN1c1ccc(Cl)cc1` [drawing 772]: in series [3], the “BBB Pene Classification” value is “High”.

Consider `NC(=O)Nc1ccc(OC[C@@H](O)CN2CCN(c3ccc(Cl)cc3)C2=O)cc1` [drawing 773], for which, in series [3] (1 MPK i.v., no time point printed), the “RATIO: Brain:plasma (Direct)” value is reported as “Below Detection limit (~0)”. The “BBB Pene Classification” value in series [3] is reported as “Low”.

For `O=C(COc1ccc2[nH]c(=O)oc2c1)N1CCN(c2ccc(Cl)c(Cl)c2)CC1` [drawing 774], the “BBB Pene Classification” value in series [3] is “Moderate”.

Regarding `O=C(COc1ccc2[nH]c(=O)oc2c1)N1CCN(c2ccc(Cl)c(Cl)c2)CC1` [drawing 775], the Kp at 15 min in series [3] (rat, brain/plasma, iv, 1 mg/kg, 1 MPK i.v., 15 m, read-out: RATIO: Brain:plasma (Direct), 15 m) stood at 0.04. Moreover, the Kp at 30 min in series [3] (rat, brain/plasma, iv, 1 mg/kg, 1 MPK i.v., 30 m, read-out: RATIO: Brain:plasma (Direct), 30 m) stood at 0.06. The Kp at 1 h in series [3] (rat, brain/plasma, iv, 1 mg/kg, 1 MPK i.v., 1 hr, read-out: RATIO: Brain:plasma (Direct), 1 hr) is 0.07. Also, the Kp at 3 h in series [3] (rat, brain/plasma, iv, 1 mg/kg, 1 MPK i.v., 3 hr, read-out: RATIO: Brain:plasma (Direct), 3 hr) amounted to 0.1. Also, the Kp in series [3] (rat, brain/plasma, iv, 1 mg/kg, 1 MPK i.v., avg, read-out: RATIO: Brain:plasma (Direct), avg) amounted to 0.07.

For the compound `Oc1ccc(OC[C@@H](O)CSc2nc3cc(Cl)c(Cl)cc3[nH]2)cc1` [drawing 776], the “RATIO: Brain:plasma (Direct), 2 hr” value in series [3] (3 MPK i.v., 2 hr) is recorded as “BLQ”. The “BBB Pene Classification” value in series [3] is recorded as “High”.

As to `O=c1[nH]c2ccc(OC[C@@H](O)CSc3nc4cc(Cl)c(Cl)cc4[nH]3)cc2o1` [drawing 777], the “RATIO: Brain:plasma (Direct), 30 m” value in series [3] (3 MPK i.v., 30 m) is listed as “BLQ (avg); BLQ (30 m), BLQ (1 hr),”. Further, the “RATIO: Brain:plasma (Direct), 1 hr” value in series [3] (3 MPK i.v., 1 hr) was “BLQ (avg); BLQ (30 m), BLQ (1 hr),”. Also, the “RATIO: Brain:plasma (Direct), avg” value in series [3] (3 MPK i.v., avg) is recorded as “BLQ (avg); BLQ (30 m), BLQ (1 hr),”. In addition, in series [3], the “BBB Pene Classification” value was “Moderate”.

For `NC(=O)Nc1ccc(OC[C@@H](O)CN2CCN(c3ccc(Cl)cc3)CC2)cc1` [drawing 778], in series [4] (10 mg/kg, 10 MPK, 0-8 hr p.o.), the half-life is 388 min.

As for `O=c1[nH]c2ccc(OC[C@@H](O)CN3CCN(c4ccc(F)c(F)c4)CC3)cc2[nH]1` [drawing 779], the half-life in series [4] (5 mg/kg, 5 MPK, 0-6 hr p.o.) was 182 min.

With `Cc1ccc(N2CCN(C[C@H](O)COc3ccc4c(c3)CCC(=O)N4)CC2)cc1` [drawing 780], the half-life in series [4] (5 mg/kg, 5 MPK, 0-6 hr p.o.) was 51 min.

Values taken from US9079852B2, “NMDA receptor antagonists for neuroprotection” (Emory University, priority 2007, dated 2015).
